≈ marks a conversion by molar mass, not a printed value.
Legend:
[1] = Antitumor activity against human Karpas-422 cells xenografted Athymic BALB/c nude mouse assessed as minimum effective dose administered twice a day for 30 days; format: functional; details: KARPAS-422, 720 h, time 30 day, read-out: MED
KARPAS-422 = assay: Antiproliferative activity against human KARPAS-422 cells expressing EZH2 mutant assessed as inhibition of cell growth after 14 days by beckman coulter counting method; format: functional; details: time 14 day
[2] = Intrinsic clearance in dog hepatocytes measured per 10^6 cells; format: ADME, cell-based, Canis lupus familiaris, Hepatocyte; details: read-out: CLH
[3] = Plasma protein binding in human assessed as unbound fraction at 1 uM measured after 6 hrs LC-MS/MS analysis; format: ADME, cell-free
[4] = Dose normalized AUC in ICR (CD-1) mouse at 2 mg/kg, po or 1 mg/kg, iv after 1 week by LC-MS/MS analysis; format: ADME, organism-based; details: in vivo, 168 h, time 1 weeks
[5] = Genotoxicity in Salmonella typhimurium TA98 in presence of S9 fraction by Ames test; format: toxicity, subcellular; details: salmonella enterica subsp. enterica serovar typhimurium
[6] = Ratio of drug level in dog blood to plasma; format: ADME, cell-free, Canis lupus familiaris; details: whole blood
[7] = Toxicity in Athymic NTac:NIH-Whn nude rat xenografted with human Karpas-422 cells assessed as reduction in body weight at 0.3 to 30 mg/kg, po, qd measured upto 140 days; format: organism-based; details: in vivo, 3360 h, dose 0.3-30 mg/kg, time < 140 day
[8] = Plasma protein binding in rat at 1 uM measured after 6 hrs LC-MS/MS analysis; format: ADME, cell-free; details: read-out: PPB (converted)
[9] = Permeability across apical to basolateral side in human Caco-2 cells at 10 uM incubated for 2 hrs by LC/MS/MS analysis; format: ADME, cell-based; details: caco-2, 2 h, 10 µM
[10] = Oral bioavailability in Sprague-Dawley rat at 2 mg/kg; format: ADME, organism-based; details: in vivo
[11] = Dissociation constant, pKa of compound; format: physicochemical
[12] = Unbound plasma concentration in Athymic BALB/c nude mouse xenografted with human Karpas-422 cells at 10 to 300 mg/kg, po after 12 hrs by HPLC-MS/MS analysis; format: ADME, organism-based; details: in vivo, dose 10-300 mg/kg
[13] = Metabolic stability in human microsomes assessed as intrinsic clearance; format: ADME, Microsome; details: read-out: CLH
[14] = Drug metabolism in bile duct cannulated Wistar Han rat assessed as parent compound recovery in bile at 3 mg/kg, iv after 8 hrs by LC-MS/MS analysis; format: ADME, organism-based; details: read-out: Drug metabolism
[15] = target: T1, Voltage-gated inwardly rectifying potassium channel KCNH2 (Homo sapiens, UniProt Q12809); assay: Inhibition of hERG potassium channel in HEK293 cells by manual patch clamp assay; format: toxicity, cell-based
[16] = Oral biovailability in Beagle dog at 2 mg/kg, po; format: ADME, organism-based, Canis lupus familiaris; details: in vivo
NIH3T3 = assay: Phototoxicity in mouse 3T3 cells by neutral red uptake assay; format: toxicity, cell-based
[17] = Terminal half life in Sprague-Dawley rat at 2 mg/kg, po or 1 mg/kg, iv after 1 week by LC-MS/MS analysis; format: ADME, organism-based; details: in vivo, time 1 weeks, read-out: beta t1/2 (converted)
[18] = Plasma clearance in dog; format: ADME, cell-free, Canis lupus familiaris
[19] = High throughput solubility of the compound in FaSSIF after 16 to 24 hrs by MS/MS analysis; format: physicochemical; details: time 16-24 hrs
Cytochrome P450 3A4 = Cytochrome P450 3A4 (Homo sapiens, UniProt P08684); assay: Inhibition of CYP3A4 in human liver microsomes using midazolam as substrate incubated for 10 mins by LC-MS/MS analysis; format: ADME, Microsome
[20] = Drugmetabolism in rat hepatocytes assessed as CYP3A4 mediated metabolite formation; format: ADME, cell-based, Hepatocyte
[21] = Intrinsic clearance in mouse hepatocytes measured per 10^6 cells; format: ADME, cell-based, Hepatocyte; details: read-out: CLH
[22] = target: T2, Muscarinic acetylcholine receptor M2 (Homo sapiens, UniProt P08172); assay: Agonist activity at muscarinic M2 receptor (unknown origin); format: functional
T2 sequence (P08172 whole entry): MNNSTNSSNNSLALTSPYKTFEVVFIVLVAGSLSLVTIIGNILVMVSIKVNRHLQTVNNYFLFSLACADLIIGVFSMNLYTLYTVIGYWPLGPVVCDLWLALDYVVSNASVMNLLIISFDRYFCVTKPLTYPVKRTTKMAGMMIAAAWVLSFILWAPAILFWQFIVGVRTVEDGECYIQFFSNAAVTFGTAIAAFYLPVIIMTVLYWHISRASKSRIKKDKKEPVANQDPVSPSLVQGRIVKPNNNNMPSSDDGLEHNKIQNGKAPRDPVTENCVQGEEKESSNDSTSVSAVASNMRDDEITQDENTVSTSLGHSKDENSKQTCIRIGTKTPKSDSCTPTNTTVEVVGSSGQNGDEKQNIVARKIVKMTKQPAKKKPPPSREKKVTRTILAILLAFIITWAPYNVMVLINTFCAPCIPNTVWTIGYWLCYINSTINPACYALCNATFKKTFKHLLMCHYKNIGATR

[23] = Drugmetabolism in human hepatocytes assessed as metabolite formation; format: ADME, cell-based, Hepatocyte
[24] = Terminal half life in wild type Beagle dog at 2 mg/kg, po or 1 mg/kg, iv after 1 week by LC-MS/MS analysis; format: ADME, organism-based, Canis lupus familiaris; details: in vivo, time 1 weeks, read-out: beta t1/2 (converted)
[25] = Toxicity in rat assessed as effect on adrenal gland; details: in vivo
[26] = Inhibition of PRC2 (unknown origin) assessed as reduction in H3K27 trimethylation using H3K27Me0 peptide (21 to 44 residues) as substrate by measuring SAH formation by LC-MS analysis; set-up: species or system Homo sapiens
[27] = Plasma clearance in human assessed as hepatic extraction; format: ADME, cell-free
[28] = Dose normalized AUC in Sprague-Dawley rat at 2 mg/kg, po or 1 mg/kg, iv after 1 week by LC-MS/MS analysis; format: ADME, organism-based; details: in vivo, 168 h, time 1 weeks
[29] = Plasma protein binding in human at 1 uM measured after 6 hrs LC-MS/MS analysis; format: ADME, cell-free; details: read-out: PPB (converted)
[30] = In vivo inhibition of PRC2 in PBMC collected from human Karpas-422 cells xenografted Athymic NTac:NIH-Whn nude rat assessed as reduction in H3K27me3 level at 0.3 mg/kg, po, qd for 52 days measured after 4 hrs of last dose by FACS method; format: functional; set-up: scale not given: the % may be the effect or the level left; details: time 52 day
Cytochrome P450 2C9 [31] = target: T3, Cytochrome P450 2C9 (Homo sapiens, UniProt P11712); assay: Inhibition of CYP2C9 human liver microsomes using diclofenac as substrate incubated for 15 mins by LC-MS/MS analysis; format: ADME, Microsome
[32] = Plasma clearance in mouse; format: ADME, cell-free
[33] = Terminal half life in ICR (CD-1) mouse at 2 mg/kg, po or 1 mg/kg, iv after 1 week by LC-MS/MS analysis; format: ADME, organism-based; details: in vivo, time 1 weeks, read-out: beta t1/2 (converted)
[34] = Reduction of H3K27me3 level in human Karpas-422 cells xenografted Athymic BALB/c nude mouse tumor assessed at 10 mg/kg, po twice a day for 21 days; format: functional; set-up: scale not given: the % may be the effect or the level left; details: time 21 day
[35] = target: T1, Voltage-gated inwardly rectifying potassium channel KCNH2; assay: Inhibition of hERG potassium channel in HEK293 cells by Q-patch clamp assay; format: toxicity, cell-based
Cytochrome P450 2C9 [36] = target: T3, Cytochrome P450 2C9; assay: Inhibition of CYP2C9 in human liver microsomes using diclofenac as substrate incubated for 10 mins in presence of NADPH by LC-MS/MS analysis; format: ADME, Microsome

T3 sequence (P11712 whole entry): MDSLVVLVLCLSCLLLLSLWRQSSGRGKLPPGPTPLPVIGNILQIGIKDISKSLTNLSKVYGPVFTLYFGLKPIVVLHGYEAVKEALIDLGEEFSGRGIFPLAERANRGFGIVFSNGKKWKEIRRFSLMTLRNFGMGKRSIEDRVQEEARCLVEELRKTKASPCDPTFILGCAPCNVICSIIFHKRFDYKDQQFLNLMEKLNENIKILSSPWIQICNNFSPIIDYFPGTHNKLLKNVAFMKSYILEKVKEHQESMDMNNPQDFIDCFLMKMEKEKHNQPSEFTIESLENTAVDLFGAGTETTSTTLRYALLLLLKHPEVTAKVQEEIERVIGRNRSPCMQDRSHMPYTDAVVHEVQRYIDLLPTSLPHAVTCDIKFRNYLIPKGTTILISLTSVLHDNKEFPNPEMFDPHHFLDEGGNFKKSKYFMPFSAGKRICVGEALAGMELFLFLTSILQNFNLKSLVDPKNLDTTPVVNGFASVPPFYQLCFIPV
T1 sequence (Q12809 whole entry): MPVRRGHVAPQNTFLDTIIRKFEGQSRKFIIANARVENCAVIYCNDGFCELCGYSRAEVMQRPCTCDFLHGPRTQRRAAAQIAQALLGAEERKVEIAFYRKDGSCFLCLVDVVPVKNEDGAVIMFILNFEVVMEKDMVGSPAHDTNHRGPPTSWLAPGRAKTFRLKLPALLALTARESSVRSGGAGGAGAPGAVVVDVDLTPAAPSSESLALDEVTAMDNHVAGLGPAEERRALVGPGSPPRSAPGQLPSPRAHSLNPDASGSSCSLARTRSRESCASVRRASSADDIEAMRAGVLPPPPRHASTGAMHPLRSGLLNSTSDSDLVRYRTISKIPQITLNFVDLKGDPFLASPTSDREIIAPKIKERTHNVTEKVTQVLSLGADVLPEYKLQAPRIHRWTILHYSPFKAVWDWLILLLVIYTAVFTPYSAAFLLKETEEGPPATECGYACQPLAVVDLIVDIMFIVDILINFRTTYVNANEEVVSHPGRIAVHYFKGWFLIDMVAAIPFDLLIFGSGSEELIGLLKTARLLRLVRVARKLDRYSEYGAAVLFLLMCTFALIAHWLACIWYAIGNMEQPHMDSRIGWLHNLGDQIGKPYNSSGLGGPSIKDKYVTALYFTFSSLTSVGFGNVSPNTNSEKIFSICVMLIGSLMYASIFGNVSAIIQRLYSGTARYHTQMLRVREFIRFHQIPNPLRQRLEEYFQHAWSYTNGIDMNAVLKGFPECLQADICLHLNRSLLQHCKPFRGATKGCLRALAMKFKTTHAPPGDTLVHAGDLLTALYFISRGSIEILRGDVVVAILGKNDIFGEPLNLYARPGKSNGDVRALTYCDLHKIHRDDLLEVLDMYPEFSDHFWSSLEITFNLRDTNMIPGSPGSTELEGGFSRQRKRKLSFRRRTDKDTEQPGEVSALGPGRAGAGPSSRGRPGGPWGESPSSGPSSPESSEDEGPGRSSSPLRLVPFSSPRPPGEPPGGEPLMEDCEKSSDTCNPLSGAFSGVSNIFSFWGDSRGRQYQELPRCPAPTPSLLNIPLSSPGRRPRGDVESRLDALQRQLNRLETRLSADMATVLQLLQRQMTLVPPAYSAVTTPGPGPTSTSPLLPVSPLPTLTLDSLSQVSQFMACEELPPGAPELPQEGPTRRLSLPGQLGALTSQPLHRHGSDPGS
Cytochrome P450 3A4, sequence (P08684 whole entry): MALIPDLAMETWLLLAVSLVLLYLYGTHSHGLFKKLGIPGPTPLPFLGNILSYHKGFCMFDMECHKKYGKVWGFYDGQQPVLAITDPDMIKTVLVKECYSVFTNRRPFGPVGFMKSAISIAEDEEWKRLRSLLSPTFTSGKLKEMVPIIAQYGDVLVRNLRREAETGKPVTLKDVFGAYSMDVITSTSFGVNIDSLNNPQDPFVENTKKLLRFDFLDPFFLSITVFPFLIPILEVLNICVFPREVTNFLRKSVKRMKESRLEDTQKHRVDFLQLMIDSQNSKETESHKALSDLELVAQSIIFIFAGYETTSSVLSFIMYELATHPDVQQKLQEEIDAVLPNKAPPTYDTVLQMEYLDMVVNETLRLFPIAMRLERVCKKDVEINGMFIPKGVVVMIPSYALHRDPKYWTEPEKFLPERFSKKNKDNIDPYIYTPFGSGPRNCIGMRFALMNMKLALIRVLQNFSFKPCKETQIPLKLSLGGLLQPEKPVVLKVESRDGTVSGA

Cc1ncccc1-c1cnc(NCc2c(F)ccc3c2CCO3)n2cnnc12
minimal effective dose [1]: 3 mg/kg
GI50 (KARPAS-422; Homo sapiens, KARPAS-422, 336 h): 4 µM
GI90 (KARPAS-422): 8 µM
hepatocyte CLint [2]: 4.8 µL/min/1e6 cells
fraction unbound at 6 h, 1 µM [3]: 0.08
AUC/dose [4]: 884 nM·h
Activity [5]: Non-Toxic
blood plasma ratio [6]: 0.72
Activity [7]: Non-Toxic
fraction unbound at 6 h, 1 µM [8]: 0.13
permeability [9]: 2.8 10^-6 cm/s
bioavailability [10]: 69%
pKa [11]: 5.2
Cp(f) [12]: 8 nM
microsomal CLint [13]: 33 µL/min/mg
dose excreted at 8 h [14]: 0.3%
IC50 [15]: > 30 µM
bioavailability [16]: 73%
Activity (NIH3T3): Non-Toxic
half-life [17]: 3.2 h
clearance [18]: 13 mL/min/kg
solubility [19]: 25 µM (≈ 9.41 µg/mL)
IC50 (Cytochrome P450 3A4): > 18 µM
Drug metabolism [20]: Metabolite_Detected
hepatocyte CLint [21]: 3.9 µL/min/1e6 cells
IC50 [22]: 8.9 µM
Drug metabolism [23]: Metabolite_Notdetected
half-life [24]: 1.2 h
Activity [25]: Non-Toxic
IC50 [26]: 9 µM
CLH [27]: 1.6 mL/min/kg
AUC/dose [28]: 2939 nM·h
fraction unbound at 6 h, 1 µM [29]: 0.08
Activity [30]: 20%
IC50 (Cytochrome P450 2C9 [31]): > 18 µM
clearance [32]: 38 mL/min/kg
half-life [33]: 1.5 h
Activity [34]: >50%
IC50 [35]: > 30 µM
IC50 (Cytochrome P450 2C9 [36]): > 20 µM
